We go through eight compounds from US9732044B2, “N-(pyrid-4-yl)amides and N-(pyrimidin-4-yl)amides and their pharmaceutical and cosmetic use” (GALDERMA RESEARCH & DEVELOPMENT, priority 2011, dated 2017).

Read-outs that look alike come from different tables or passages of the source.

Experiment [1] relates to sebaceous gland of the ear of a Syrian hamster. Nature of the experiment: In vivo animal model with reduction in the size of the sebaceous glands (Syrian hamster ear). As to conditions: 1 g %/mL solution, topical on ear, daily for 24 days, compared to control (absolute ethanol). The source says: The model of the sebaceous gland of the ear of a Syrian hamster described by Plewig and Luderschmidt in J. Inv. Derm., (1977), pp. 171-176 is a classical tool for the in vivo study of the function of the sebaceous gland. In fact, the inner faces of the ear lobes of the hamster contain a high number of sebaceous glands described as being similar to those of human sebaceous follicles in terms of certain characteristics, including their morphology and response to androgens and anti-androgens. In fact the growth and lipogenesis of the sebaceous glands on the inner face of the ear of Syrian hamsters depend on the androgens. The anti-androgenic activity of test compounds can be easily evaluated by measuring the size of the sebaceous glands. Moreover, this model has been selected to evaluate the efficacy of the antagonists of the receptor to the androgens on the sebaceous gland.
Test compounds were evaluated according to the following protocol: male hamsters aged weeks were treated daily for 24 days on the inner face of the right ear with 30 μL of a solution of the test compound to be evaluated in absolute ethanol. For each test compound, groups were treated with solutions at a range of concentrations (e.g., from 0.01 g %/mL to 3 g %/mL), as well as absolute ethanol used as a control. (A concentration of 3 g %/mL means a concentration of 0.03 g/mL.)
At the end of the study, samples were taken from the treated ears. The skin of the inner face of the ear was separated from the cartilage. Under a binocular magnifying glass, two zones of 4 mm^2 were numbered. The size of the sebaceous glands was measured on the numerical images by manually trimming the glands by means of image analysis software (TINA.20). For each image some twenty glands were measured. The average area of the sebaceous glands was calculated for each treatment group.
A Student t-test for independent groups comparing each dose with vehicle was carried out to compare the average size of the sebaceous glands as a function of the doses applied. When the evolution of the effect is represented graphically as a function of the administered dose of test compound, the curve obtained is sigmoid in shape. In the median part, this sigmoid may be likened to a straight line. The dose corresponding to 50% of the maximum effect corresponds graphically to the point located in the centre of the linear section defined as “effective dose 50”. This DE50 characterises the potency of the test compound.

For the next experiment, the target named is androgen receptor (AR) (Homo sapiens (Human), UniProt P10275). Briefly: Androgen receptor transactivation test in PALM cell line (cross curves against methyl trienolone). It counts as cell-based. The method, then:
This AR inhibiting activity was measured in a transactivation test by the dissociation constants KdR (rest), KdA (active), and Kdapp (apparent).
A compound may be said to be an AR inhibitor if it has a dissociation constant, Kdapp, of less than or equal to 1 μM, and a KdR/KdA ratio of less than or equal to 10 in a transactivation test.
The transactivation test is carried out in the cell line PALM (PC3 androgen receptor Luciferase MMTV), which is a stable transfectant containing the plasmids PMMTV-neo-Luc (reporter gene) and pSG5puro-AR.
In this study, the affinity of each test compound for the 2 states of the receptor (KdR and KdA) is determined together with the apparent Kd (KdApp). This constant depends upon the 2 Kd's (KdR and KdA), but also depends on the initial equilibrium of the receptor between the active state and rest state (L0) and on its expression rate. It is determined by the following formula: 1/KdApp=(L0/(1+L0))×(1/KdR)+(1/(1+L0))×(1/KdA)
In order to determine these constants, “cross curves” of the test compound against a reference agonist, methyl trienolone, are carried out on a 96-well plate. The test compound is used in 10 concentrations and the reference agonist in 7 concentrations.

Where [2] appears, read: Kdapp, threshold lists, PALM cells.
The mark [3] stands for this setting: threshold lists, PALM cells, read-out: Kdapp.

Chain of androgen receptor (AR) (P10275 whole entry): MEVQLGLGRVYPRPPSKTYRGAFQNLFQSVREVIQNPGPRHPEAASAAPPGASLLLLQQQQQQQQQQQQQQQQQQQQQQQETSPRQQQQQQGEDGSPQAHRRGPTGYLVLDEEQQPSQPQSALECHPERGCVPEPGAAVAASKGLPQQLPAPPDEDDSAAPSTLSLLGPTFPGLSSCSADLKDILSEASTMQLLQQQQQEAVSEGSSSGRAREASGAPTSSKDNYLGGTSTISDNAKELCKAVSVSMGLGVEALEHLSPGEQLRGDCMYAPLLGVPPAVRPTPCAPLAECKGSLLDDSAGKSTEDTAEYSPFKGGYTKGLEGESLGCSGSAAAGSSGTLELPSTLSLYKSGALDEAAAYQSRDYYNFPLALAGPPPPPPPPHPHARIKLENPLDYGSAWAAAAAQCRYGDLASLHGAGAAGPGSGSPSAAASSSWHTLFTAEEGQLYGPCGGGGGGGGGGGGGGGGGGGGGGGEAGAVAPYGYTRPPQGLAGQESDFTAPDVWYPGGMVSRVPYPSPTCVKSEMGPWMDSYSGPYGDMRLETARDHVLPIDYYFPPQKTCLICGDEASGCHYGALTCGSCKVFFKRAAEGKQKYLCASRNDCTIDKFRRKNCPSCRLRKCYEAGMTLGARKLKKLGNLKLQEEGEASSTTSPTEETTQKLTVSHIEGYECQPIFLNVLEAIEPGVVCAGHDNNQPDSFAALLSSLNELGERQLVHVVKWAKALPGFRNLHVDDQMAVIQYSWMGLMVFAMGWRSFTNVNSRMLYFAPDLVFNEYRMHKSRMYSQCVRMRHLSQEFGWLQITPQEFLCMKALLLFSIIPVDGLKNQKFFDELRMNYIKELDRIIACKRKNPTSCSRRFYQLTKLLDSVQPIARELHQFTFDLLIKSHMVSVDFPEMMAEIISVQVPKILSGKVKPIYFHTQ

With `CC(O)(CCc1ccccc1)C(=O)Nc1ccnc(Br)c1` (centres unmarked) [Compound 43, N-(2-Bromo-pyridin-4-yl)-2-hydroxy-2-methyl-4-phenyl-butyramide], the “Reduction of sebaceous glands (following treatment at 1 g %/mL)” value in experiment [1] is listed as 44%. The Kd is not above 100 nM on androgen receptor (AR) (setting [2]) and 100 nM at androgen receptor (AR) (apparent dissociation constant, PALM cells (PC3 androgen receptor Luciferase MMTV), read-out: Kdapp).

With `COc1cc(NC(=O)C(O)(C(C)C)C(C)C)cc(Br)n1` [Compound 68, N-(2-Bromo-6-methoxy-pyridin-4-yl)-2-hydroxy-2-isopropyl-3-methyl-butyramide], the “Reduction of sebaceous glands (following treatment at 1 g %/mL)” value in experiment [1] is reported as 57%. At androgen receptor (AR) (setting [2]), this compound showed a Kd not above 30 nM.

With `CCCCC(C)(O)C(=O)Nc1cc(Br)nc(OC)c1` (centres unmarked) [Compound 72A, 2-Hydroxy-2-methyl-hexanoic acid (2-bromo-6-methoxy-pyridin-4-yl)-amide], the “Reduction of sebaceous glands (following treatment at 1 g %/mL)” value in experiment [1] stood at 48%. In addition, the Kd on androgen receptor (AR) (setting [3]) is not above 30 nM.

With `CCCCC(C)(O)C(=O)Nc1cc(Br)nc(OC)c1` (centres unmarked) [Compound 72B, 2-Hydroxy-2-methyl-hexanoic acid (2-bromo-6-methoxy-pyridin-4-yl)-amide], the “Reduction of sebaceous glands (following treatment at 1 g %/mL)” value in experiment [1] is recorded as 46%. Also, the Kd on androgen receptor (AR) (setting [3]) is not above 100 nM.

Consider `CCC(O)(C(=O)Nc1cc(Br)nc(OC)c1)C(C)C` (centres unmarked) [Compound 74B, N-(2-Bromo-6-methoxy-pyridin-4-yl)-2-ethyl-2-hydroxy-3-methyl-butyramide], for which, in experiment [1], the “Reduction of sebaceous glands (following treatment at 1 g %/mL)” value is on record as 61%. In addition, the Kd on androgen receptor (AR) (setting [3]) is not above 30 nM.

As to `COc1cc(NC(=O)C(C)(O)C(C)C)cc(Br)n1` (centres unmarked) [Compound 76A, N-(2-Bromo-6-methoxy-pyridin-4-yl)-2-hydroxy-2,3-dimethyl-butyramide], the “Reduction of sebaceous glands (following treatment at 1 g %/mL)” value in experiment [1] stood at 58%. In addition, the Kd at androgen receptor (AR) (setting [3]) is not above 30 nM.

Take `CCCC(C)(O)C(=O)Nc1cc(Br)nc(OC)c1` (centres unmarked) [Compound 78B, 2-Hydroxy-2-methyl-pentanoic acid (2-bromo-6-methoxy-pyridin-4-yl)-amide]: in experiment [1], the “Reduction of sebaceous glands (following treatment at 1 g %/mL)” value was 50%. In addition, at androgen receptor (AR) (setting [3]), the Kd was not above 100 nM.

For the compound `CCCC(O)(C(=O)Nc1cc(Br)nc(OC)c1)C(C)C` (centres unmarked) [Compound 79A, 2-Hydroxy-2-isopropyl-pentanoic acid (2-bromo-6-methoxy-pyridin-4-yl)-amide], the “Reduction of sebaceous glands (following treatment at 1 g %/mL)” value in experiment [1] was found to be 48%. Also, on androgen receptor (AR) (setting [3]), the Kd was not above 30 nM.
